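Step 1: Grow cells in 96-well plates. Step 2: Expose to compound for 48 hours at 5 concentrations. Step 3: Interpolate endpoints linearly; if unreached, use highest concentration. GI50: concentration for 50% inhibition of growth. At the TGI there is no net growth.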
Key:
Test in all cases: NCI anticancer screen, dose series, 48 h
PC-3 prostate = test system: PC-3 prostate
COLO 205 colon = test system: COLO 205 colon
K-562 leukemia = test system: K-562 leukemia
HCC-2998 colon = test system: HCC-2998 colon
OVCAR-3 ovarian = test system: OVCAR-3 ovarian
SF-268 CNS = test system: SF-268 CNS
UACC-62 melanoma = test system: UACC-62 melanoma
A549 NSCLC = test system: A549 NSCLC
786-0 renal = test system: 786-0 renal
SK-MEL-2 melanoma = test system: SK-MEL-2 melanoma

Row | Structure (SMILES) | GI50 (PC-3 prostate) | TGI (PC-3 prostate) | GI50 (COLO 205 colon) | TGI (COLO 205 colon) | GI50 (K-562 leukemia) | TGI (K-562 leukemia) | GI50 (HCC-2998 colon) | TGI (HCC-2998 colon) | GI50 (OVCAR-3 ovarian) | TGI (OVCAR-3 ovarian) | GI50 (SF-268 CNS) | TGI (SF-268 CNS) | GI50 (UACC-62 melanoma) | TGI (UACC-62 melanoma) | GI50 (A549 NSCLC) | TGI (A549 NSCLC) | GI50 (786-0 renal) | TGI (786-0 renal) | GI50 (SK-MEL-2 melanoma) | TGI (SK-MEL-2 melanoma)
1 | O=C1C(=O)c2ccccc2C(O)=C1CC=C(Br)Br | 3.05 µM | 91.5 µM | 10.3 µM | 24.5 µM | 1.33 µM | > 100 µM | 18.6 µM | > 100 µM | 8.75 µM | 34.7 µM | 2.66 µM | > 100 µM | 1570 nM | 35.9 µM | 2.82 µM | 62.2 µM | 3.99 µM | > 100 µM | 12.2 µM | 30.9 µM
2 | O=C(Nc1cc(Cl)cc(Cl)c1)c1ccc(NC2=C(Cl)C(=O)N(Cc3ccc(Cl)cc3Cl)C2=O)cc1 | 13.1 µM | 25.8 µM | 12.1 µM | 35.4 µM | 1.33 µM | 10.7 µM | 15 µM | 36.9 µM | 26.8 µM | 70.2 µM | 8.87 µM | 39.4 µM | 18300 nM | 38.2 µM | > 100 µM | > 100 µM | 3.41 µM | 35.1 µM | 23.5 µM | 43.9 µM
3 | O=C(CO)CC(=O)C(=O)Nc1ccccc1 | – | – | – | > 100 µM | – | > 100 µM | – | > 100 µM | – | > 100 µM | – | > 100 µM | – | > 100 µM | – | > 100 µM | – | > 100 µM | – | > 100 µM
4 | O=C(CNc1ccc2c(c1)C(=O)c1ccccc1C2=O)Nc1ccc2c(c1)C(=O)c1ccccc1C2=O | 1.29 µM | 3.48 µM | 1.26 µM | 2.94 µM | – | – | 1.58 µM | 2.99 µM | 0.71 µM | 1.83 µM | 0.575 µM | 1.71 µM | 631 nM | 1.95 µM | 1.68 µM | 3.58 µM | 0.451 µM | 1.69 µM | 0.697 µM | 2 µM
5 | CC(C)c1ccc(C2C3=C(N=C4SCC(=O)N42)C(=O)c2ccccc23)cc1 (stereo unspecified) | – | – | – | > 100 µM | – | > 100 µM | – | > 100 µM | – | > 100 µM | – | > 100 µM | – | > 100 µM | – | > 100 µM | – | > 100 µM | – | > 100 µM
6 | COC(=O)C(=O)OC1(C(C)=O)CC2(c3ccccc3)OC1(c1ccccc1)c1ccccc12 (stereo unspecified) | – | – | – | 29.5 µM | – | > 100 µM | – | 31.4 µM | – | 27.9 µM | – | 44 µM | – | 28.1 µM | – | 31.3 µM | – | 26.9 µM | – | –
7 | NC(N)=N/N=C\c1cccc(OCc2ccccc2)c1 | 11.2 µM | 25.1 µM | 1.78 µM | 3.36 µM | 3.87 µM | 16.1 µM | 1.81 µM | 3.54 µM | 6.51 µM | 23 µM | 10.9 µM | 25 µM | 1670 nM | 3.45 µM | 9.2 µM | 24.1 µM | 3.54 µM | 12.6 µM | 3.31 µM | 13 µM
8 | O=C1NC(=O)C2C(=O)NC(=O)C1C2(c1ccccc1)c1cc[nH]c1 (stereo unspecified) | – | – | – | > 100 µM | – | > 100 µM | – | > 100 µM | – | > 100 µM | – | > 100 µM | – | > 100 µM | – | > 100 µM | – | > 100 µM | – | > 100 µM
9 | N#Cc1c(NN)nc(NN)c(C#N)c1-c1ccccc1 | – | – | – | > 100 µM | – | > 100 µM | – | > 100 µM | – | > 100 µM | – | > 100 µM | – | > 100 µM | – | > 100 µM | – | > 100 µM | – | > 100 µM
10 | Cc1cc2nc(CCC(=O)O)c(=O)[nH]c2cc1C | – | – | – | > 100 µM | – | > 100 µM | – | > 100 µM | – | > 100 µM | – | > 100 µM | – | > 100 µM | – | > 100 µM | – | > 100 µM | – | > 100 µM
11 | CCOc1ccccc1NC(=O)CC1SC(=Nc2ccc([N+](=O)[O-])cc2)NC1=O (stereo unspecified) | – | – | – | 35.1 µM | – | – | – | 36.7 µM | – | 31.6 µM | – | > 100 µM | – | 39.9 µM | – | 38.9 µM | – | 33.5 µM | – | 41.5 µM
12 | c1ccc2[nH]c(-c3ccc(NN=Nc4ccncc4)cc3)nc2c1 | 33 µM | > 100 µM | 27 µM | > 100 µM | 14.6 µM | 61.8 µM | – | – | 15.1 µM | > 100 µM | 4.81 µM | 74.4 µM | 75100 nM | > 100 µM | > 100 µM | > 100 µM | 99.9 µM | > 100 µM | 15.4 µM | > 100 µM
13 | CC(=O)[CH-]C(=O)c1ccccc1.CC(=O)[CH-]C(=O)c1ccccc1.CC(C)CCCC(C)[C@H]1CCC2[C@@H]3CC=C4C[C@@H]([O-])CC[C@]4(C)C3CC[C@@]21C.CC[O-].[Ti+4] (stereo partly specified) | – | – | 48.5 µM | > 100 µM | 33.1 µM | > 100 µM | 62.6 µM | > 100 µM | 49.7 µM | > 100 µM | 50.2 µM | > 100 µM | 82300 nM | > 100 µM | > 100 µM | > 100 µM | 35.2 µM | > 100 µM | 22.4 µM | 80.1 µM
14 | Oc1cc(O)c2c(-c3c(O)c(-c4ccc(O)c(O)c4)[o+]c4cc(O)cc(O)c34)c(O)c(-c3ccc(O)c(O)c3)[o+]c2c1 | – | – | – | > 100 µM | – | – | – | > 100 µM | – | 46.2 µM | – | > 100 µM | – | 46.7 µM | – | > 100 µM | – | > 100 µM | – | –
15 | CCCCCC/C=C1\CCC(CN2CCCC2)C1=O (stereo unspecified) | – | – | – | 36.3 µM | – | 12.6 µM | – | 31.6 µM | – | 27.3 µM | – | 38.5 µM | – | 35.9 µM | – | 37 µM | – | 6.43 µM | – | 30.5 µM
16 | CC1(CO)OC(n2cc(C(=O)NC(=O)OCc3ccccc3)c(=O)[nH]c2=O)CC1O (stereo unspecified) | – | – | – | > 100 µM | – | > 100 µM | – | – | – | > 100 µM | – | > 100 µM | – | > 100 µM | – | > 100 µM | – | > 100 µM | – | –
17 | COC(=O)C1=C(C(=O)ON)C2C=CC1(C(Cc1ccccc1)Nc1ccccc1)O2 (stereo unspecified) | 5.58 µM | 19.9 µM | 1.78 µM | 3.33 µM | – | – | 16.9 µM | 32.3 µM | 1.72 µM | 3.11 µM | 10.5 µM | 23 µM | 2240 nM | 6.66 µM | 15.2 µM | 29.4 µM | 1.76 µM | 3.26 µM | 11.6 µM | 24.4 µM

Source: PubChem BioAssay (NCI)
